# In ChEMBL document CHEMBL3507680, “University of Dundee, Gates Library screen for HepG2 cell viability”:
# Experiment: Human HepG2 cell viability assay in 384 well format
# Assay type: toxicity, cell-based
# Parameters: dose 125 nL, time 70.5 hour; cytotoxicity at 70.5 h: concentration not given beside the values
# Details: HepG2 cells, read-out: Inhibition
row,SMILES,cytotoxicity at 70.5 h
1,CCN(Cc1ccc2c(c1)OCCO2)C(=O)NCc1nc(C)cs1,-27.9%
2,COc1ccc(Br)cc1Cn1nc(C(N)=O)ccc1=O,-6.15%
3,Cc1ccsc1CN(CCCN(C)C)Cc1ccccn1,-3.09%
4,CCn1ccc(NS(=O)(=O)c2cccc(COC)c2)n1,8.56%
5,Cn1ncnc1NCc1ccccc1Cl,-15.3%
6,CC(C)c1noc([C@@H]2Cc3[nH]cnc3CN2C(=O)Nc2ccccc2)n1,9.88%
7,Cc1noc([C@@H]2CC[C@@H]3[C@@H](CCN3S(=O)(=O)c3cccnc3)O2)n1,-4.36%
8,CC(C)c1nccn1C1CCCN(C(=O)CCc2cscn2)C1 (stereo unspecified),-6.33%
9,Cc1[nH]c(C2(N)CCCCC2)nc(=O)c1C,-4.13%
10,CCn1nnc2c1CCN(C(=O)c1ccc3c(c1)OCO3)C2COC (stereo unspecified),10.7%
11,CCn1c(C2CCCN(Cc3cc(C)cc(C)c3)C2)nn(C)c1=O (stereo unspecified),3.73%
12,COc1ccccc1OC1CCN(C(=O)c2cnc(C)s2)CC1,-4.88%
13,Cc1cccc(C(C)(C)CNC(=O)CN(C)c2cnccn2)c1,-2.49%
14,COCCOc1ccccc1C(=O)N(C)Cc1ncc(C)c(OC)c1C,-5.65%
15,CCO[C@@H]1CC[C@H]2[C@H]1OCCN2C(=O)C1CCOCC1,-2.08%
16,CNS(=O)(=O)c1cccc(CNCc2ccsc2)c1,-1.74%
17,COCCO[C@@H]1CCN(c2cc(OC)ncn2)[C@H]1Cc1cnn(C)c1,-4.31%
18,Cn1nccc1C(=O)N1CCN(C(=O)C2CCC2)[C@@H]2CS(=O)(=O)C[C@@H]21,-6.57%
19,Cc1cc(NCCO)nc(-c2ccccc2O)n1,6.62%
20,CC(C)=CCCC(C)(O)c1cc(C(N)=O)no1 (stereo unspecified),-9.16%
21,NC(=O)CN1CCN(S(=O)(=O)N2CCCC2c2ccco2)CC1 (stereo unspecified),-3.32%
22,Cc1cc(NC(=O)CNCc2csc(-c3cnccn3)n2)ccc1Cl,-6.43%
23,CS(=O)(=O)NCCCNC(=O)c1cccnc1O,-4.43%

row,SMILES,cytotoxicity at 70.5 h
1,CC(C)c1cc(C(=O)NCC2CCCN(c3ncccn3)C2)n(C)n1 (stereo unspecified),-5.82%
2,CN1CCN(C(=O)CCn2ncc3ccccc32)CC(C(N)=O)C1 (stereo unspecified),-6.19%
3,CCc1nnc2n1CCN(C(=O)CCOc1cc(C)ccc1C)C2,-5.39%
4,O=C(CCS(=O)(=O)C1CCCC1)N1CCC(O)(C(F)(F)F)C1 (stereo unspecified),19.5%
5,c1cnc(Nc2cncc(C3CCCN(c4ncccn4)C3)n2)nc1 (stereo unspecified),-7.66%
6,Cn1nnnc1SCCNC1CCN(c2ccc3c(c2)OCO3)CC1,4.51%
7,CS(=O)(=O)N1CC[C@@H](CC(=O)O)[C@@H](CC2=NCCc3cc(F)ccc32)C1,-6.32%
8,Cc1oc(-c2ccsc2)nc1CC(=O)NCC(=O)Nc1cn[nH]c1,-13%
9,CNS(=O)(=O)c1ccc(C)c(C(=O)NCCNc2ncccn2)c1,-14.9%
10,CN(C)C(=O)CN1CCC2(CC1)CC(=O)c1c(ccc3ccccc13)O2,-1.64%
11,CCN(CC)C(=O)C(c1ccccc1)N1CCn2c(C)nnc2C1 (stereo unspecified),2.24%
12,CC[C@H]1CN2CC[C@H]1C[C@@H]2CNCc1ccc(N(C)C)cc1,26.4%
13,CN(Cc1cccnc1)[C@@H]1CN(c2ncc(F)cn2)[C@@H]2CCCO[C@H]12,-11.8%
14,O=C(CN(CC(O)c1ccc(F)cc1)C1CC1)NC1CCOCC1 (stereo unspecified),-91.7%
15,O=C1CC[C@H]2CN(c3ncccc3F)CC[C@H]2N1CCc1ccccc1,17.3%
16,CC(C)(C)CC(=O)N1C[C@H]2CCN[C@H]2C1,-2.71%
17,Cn1cc(NCCOc2ccc(F)cc2)cn1,-5.12%
18,Cc1nn(-c2ncnc3[nH]cnc23)c2c1C(CC(C)C)CC(=O)N2 (stereo unspecified),-2.59%
19,Cc1cnc(N2CCCn3c(nnc3CN(C)C(C)C)C2)nc1,-1.83%
20,Cc1nn(C)c(C)c1CNCc1cccnc1N1CCOCC1,-7.44%
21,CC(C)C1CN(Cc2c[nH]cn2)CCCN1CC1CC1 (stereo unspecified),-17.8%
22,Cc1nc(C)n(CC2CCCN2Cc2nc3ccccc3n2C)n1 (stereo unspecified),-7.27%
23,CCS(=O)(=O)N1CCc2ccc(NC(=O)Nc3ccccc3C)cc21,-11%

row,SMILES,cytotoxicity at 70.5 h
1,CNC(=O)CN1CC[C@H]2CN(C(=O)c3ccc(C)nc3)C[C@H]2C1,-1.44%
2,CCC(CN1CCCCC1)NC(=O)C1(c2cccc(F)c2)CC1 (stereo unspecified),-8.99%
3,O[C@@]1(Cn2cnc(Cl)c2Cl)CCCN2CCCC[C@@H]21,-12.5%
4,CC(C)n1cc(C(=O)N2Cc3ccccc3OC3(CCOCC3)C2)cn1,23.6%
5,O=C(NCC1CC1)[C@@H]1C[C@@H]2CCN(Cc3ccccc3)C[C@H]2O1,-6.35%
6,CC(C)c1ccc2c(c1)CCCN2C(=O)CN(C)S(C)(=O)=O,-94.4%
7,Cc1ccc(CN2CCc3ncc(CNS(C)(=O)=O)n3CC2)o1,-12.4%
8,COC(C)(C)CNC(=O)c1cn(-c2cccc(Cl)c2F)nn1,4.1%
9,CCOc1ccc(Cl)cc1NC(=O)N1CCC(n2cncn2)CC1,-7.8%
10,O=C(NCCc1ccccn1)[C@@]12CCO[C@@H]1CCN(CC1CC1)C2,-5.28%
11,CC[C@@H](C)[C@@H](N)C(=O)Nc1cccc(-c2cnc(N(C)C)nc2)c1,-4.42%
12,COc1ncc(-c2nccn2CCN(C)C)cn1,9.94%
13,Cc1csc(N2CCN(C(=O)CCCNc3ncccn3)CC2)n1,-5.37%
14,COCCOc1ncccc1CNC(=O)N1CCCCCC1,-12.7%
15,CNc1cc(C2CN(C(=O)c3ccn(C)n3)CCO2)nc(C)n1 (stereo unspecified),26.5%
16,Cn1cc(CN2CC[C@H]3OCC[C@@H](C(=O)NC4CCCC4)[C@@H]3C2)cn1,-17.5%
17,CC(C)C(=O)N1CCC12CCCN(C(=O)c1ccccc1)C2 (stereo unspecified),-2.99%
18,CC(=O)N1CC2(CCCCN2Cc2ccc(Cl)cc2)Cc2ccccc21 (stereo unspecified),5.47%
19,CSCCCN1CCn2nc(CNC(=O)N(C)C)cc2C1,0.863%
20,COCCNC(=O)[C@@]12CCO[C@@H]1CCN(Cc1c(C)noc1C)C2,-5.87%
21,CC(=O)N1CCN(c2cncc(C3CCNCC3)n2)CC1,34.1%
22,O=C1NCCCCC1NC(=O)C1(Oc2ccc(Cl)cc2)CCNCC1 (stereo unspecified),-7.72%
23,C[C@@H]1CN(c2ccc3c(Cl)ccnc3c2F)CC(C(N)=O)O1 (stereo partly specified),-4.78%

row,SMILES,cytotoxicity at 70.5 h
1,c1c(CN2CCOCC2)nc2n1CCN(C1CCOCC1)C2,-1.69%
2,Cc1nc(CO[C@@H]2CN(Cc3cccnc3)[C@@H]3COC[C@@H]32)cs1,-10.3%
3,Cc1nc2c(Nc3cccc(C#N)c3)nc(N)nc2n1C,4%
4,CCOCCCn1c(NC(=O)c2cc(C)on2)nc2ccccc21,9.94%
5,COCCN1CCN(CCS(=O)(=O)c2cccc(OC)c2)CC1,-2.71%
6,CC(C)n1cnnc1CN(C)CC1CCCNC1 (stereo unspecified),-5.56%
7,CC(C)n1ccnc1C1CCCN(c2cncc(N(C)C)n2)C1 (stereo unspecified),2.84%
8,Cc1ccc(CN(C)C(=O)c2cccc(NC(N)=O)c2)o1,-11.5%
9,CN(C)C(=O)Cn1cnc2c(Br)cccc2c1=O,-10.4%
10,Cn1cc(CN2CCn3cnc(COCC4CC4)c3C2)cn1,14.1%
11,CC(NCc1cccnc1)c1cc2c(cc1Br)OCCO2 (stereo unspecified),-6.12%
12,c1coc(CN2CC[C@@H]3O[C@@H](COCc4ccncc4)CC[C@@H]32)c1,3.57%
13,Cc1cc(F)ccc1CN1CCC(O)(CN2CCCCC2)C1 (stereo unspecified),-1.38%
14,CCC(CNC(=O)Nc1cnn(CC)c1)N1CCc2ccccc2C1 (stereo unspecified),-4.26%
15,Cc1ncc2c(n1)CN(C(C(N)=O)c1ccccc1)CC2 (stereo unspecified),-7.87%
16,Cn1cc(CN2CCCCC2c2ccc(-c3cnn(C)c3)nc2)cn1 (stereo unspecified),-8.29%
17,Cc1cc(C(C)(O)CNC(=O)c2ccc(Br)o2)c(C)o1 (stereo unspecified),-0.275%
18,CCN(Cc1nc(COC)no1)Cc1cc2ccc(F)cc2[nH]c1=O,-12.1%
19,O=C(c1ccccc1)N1CCO[C@@H]2CN(c3cnccn3)C[C@@H]2C1,-12.3%
20,CC1c2cccn2CCN1C(=O)CCCc1nc(-c2ccco2)no1 (stereo unspecified),-7.42%
21,COCC1(C(=O)N[C@H]2CN(c3noc(C)n3)C[C@@H]2C2CC2)CCC1,-1.28%
22,Cc1cc(NC(=O)N2CCC[C@@H]2CO)nn1-c1ccccc1Cl,-7.9%
23,CC(C)c1nn(C)cc1CNC1CCOc2ccccc21 (stereo unspecified),-7.85%

row,SMILES,cytotoxicity at 70.5 h
1,CCN(C)S(=O)(=O)N[C@H]1CN(c2ccc(F)cn2)C[C@@H]1C(C)C,-1.25%
2,COCCN(Cc1ccccc1C)c1nc(C)nc2oc(C)nc12,0.842%
3,c1cc2c(cc1C1CCCN1Cc1nnnn1C1CC1)OCCO2 (stereo unspecified),13.7%
4,CC1CCN(C(=O)c2cn(-c3cc(N4CCOCC4)ncn3)cn2)CC1,-14%
5,Cc1nc(CN2CCCC(N(C)Cc3cscn3)C2)no1 (stereo unspecified),4.42%
6,CN(Cc1cc[nH]n1)C(=O)C1CC(=O)N(Cc2ccncc2)C1 (stereo unspecified),-0.62%
7,CNc1cc(C)nc(C2CN(Cc3cncs3)CCO2)c1 (stereo unspecified),-11.5%
8,CN(CC(=O)N1CCC(Oc2ccccc2)CC1)c1cnccn1,-13.9%
9,CC(C)N(C)S(=O)(=O)c1ccc2c(c1)CCN(C(=O)c1cccnn1)C2,-13.5%
10,Cc1nc(C)n(CC2CCCN2Cc2nc(N)c3ccccc3n2)n1 (stereo unspecified),-4.33%
11,CC1CN(C(=O)C2(c3cccc(F)c3)CCOCC2)CCO1 (stereo unspecified),-3.81%
12,O=C(C[C@@H]1COC[C@H]2CN(Cc3ccsc3)C[C@@H]12)N1CCCC1,-3.89%
13,O=C(NCC1CC(=O)N(CCc2ccccc2)C1)c1c(F)cccc1F (stereo unspecified),3.42%
14,O=C(NCc1cc[nH]n1)NCC(c1ccc(F)cc1)N1CCOCC1 (stereo unspecified),-12.9%
15,CC(C)Nc1ncnc2c1CCN(C(=O)c1ccccc1F)CC2,-3.35%
16,Cc1nn(C)c(Cl)c1C1CCCN1c1ncnc2c1CCC2 (stereo unspecified),18%
17,CSc1nccn1-c1cccc(C(=O)NCCC(=O)NC(C)C)c1,-3.09%
18,CC(=O)NCC1CCN(CC2CCOc3ccccc3C2)CC1 (stereo unspecified),-4.25%
19,O=C(O)c1cccnc1CN1CCCC1CCc1ccccc1 (stereo unspecified),-14.9%
